Results published in patent publication US6814960B1, “Hydroxystilbene compounds used as microbicidal active substances” (Ciba Specialty Chemicals Corporation, priority 1998, dated 2004).

Tests used:
Test in all cases: MIC value in microtitre plates (optical density)
Type in all cases: cell-based
[1] = test system: Pseudomonas aeruginosa CIP A-22; conditions: microtitre plate, CASO bouillon, 48 hours at 37° C., optical density 620 nm, ≦20% growth; some data indicative values
Experimental: (§1) Determination of the Minimum Inhibiting Concentration (MIC Value) in Microtitre Plates
(§2) Casein/soybean flour peptone bouillon for the preparation of the precultures of the test bacteria and yeast.
(§3) Mycological slant agar for the preculture of moulds.
(§4) Examples of Test Organisms
(§5) The test substances are predissolved in dimethyl sulfoxide (DMSO) and tested in a serial dilution of 1:2.
(§6) Bacteria and yeast are cultured overnight in CASO bouillon, the mould on mycological slant agar and rinsed off with 10 ml of 0.85% sodium chloride solution (+0.1% TritonX-100).
(§7) All test organisms are adjusted to an organism count of 1.5×10^6 CFU/ml with 0.85% sodium chloride solution.
(§8) The test substances are prepipetted into microtitre plates in an amount of 8 μl per well.
(§9) Previously diluted organism substances are diluted 1:100 in CASO bouillon (bacteria and yeast) and Sabouraud 2% glucose bouillon (mould) and added to the test substances in an amount of 192 μl per well.
(§10) The test batches are incubated for 48 hours at 37° C. (bacteria and yeast) or for 5 days at 28° C. (mould).
(§11) After incubation, the growth is determined by reference to the turbidity of the test batches (optical density) at 620 nm in a microplate reader.
(§12) The minimum inhibiting concentration (MIC value) is the concentration of substance at which (compared with the growth control) an appreciable inhibition of the growth (≦20% growth) of the test organisms is ascertained.
(§13) One microtiter plate is used for each test organism and substance concentration. All substances tested in duplicate.

[2] = test system: Aspergillus niger ATCC 6275; conditions: microtitre plate, Sabouraud 2% glucose bouillon, 5 days at 28° C., optical density 620 nm, ≦20% growth; some data indicative values
Experimental: as §1, §2, §3, §4, §5, §6, §7, §8, §9, §10, §11, §12, §13

[3] = test system: Candida albicans ATCC 10231; conditions: microtitre plate, CASO bouillon, 48 hours at 37° C., optical density 620 nm, ≦20% growth; some data indicative values
Experimental: as §1, §2, §3, §4, §5, §6, §7, §8, §9, §10, §11, §12, §13

[4] = test system: Escherichia coli NCTC 8196; conditions: microtitre plate, CASO bouillon, 48 hours at 37° C., optical density 620 nm, ≦20% growth; some data indicative values
Experimental: as §1, §2, §3, §4, §5, §6, §7, §8, §9, §10, §11, §12, §13

[5] = test system: Staphylococcus hominis DSM 20328; conditions: microtitre plate, CASO bouillon, 48 hours at 37° C., optical density 620 nm, ≦20% growth; some data indicative values
Experimental: as §1, §2, §3, §4, §5, §6, §7, §8, §9, §10, §11, §12, §13

Row | Compound | MIC values P. aeruginosa [1] [ppm] | MIC values A. niger [2] [ppm] | MIC values C. albicans [3] [ppm] | MIC values E. coli [4] [ppm] | MIC values S. heminis [5] [ppm]
1 | COc1cc(/C=C/c2ccc(C)cc2)ccc1O [Comp. of formula 184] | >100 | 100 | >100 | >100 | >100
2 | Cc1cccc(/C=C/c2ccc(-c3ccccc3)cc2)c1O [Comp. of formula 153] | >100 | >100 | >100 | >100 | >100
3 | CCOc1cc(/C=C/c2ccc(OC)cc2)ccc1O [Comp. of formula 134] | >100 | >100 | >100 | >100 | >100
4 | Oc1ccccc1/C=C/c1ccccc1 [Comp. of formula 113] | >100 | 60 | 60 | 100 | 100
5 | Oc1ccc(/C=C/c2cccc3ccccc23)cc1 [Comp. of formula 156] | >100 | 30 | 15 | 60 | 7.5
6 | COc1cc(/C=C/c2ccc(-c3ccccc3)cc2)cc(O)c1OC [Comp. of formula 151] | >100 | >100 | >100 | >100 | >100
7 | CCOc1cc(/C=C/c2ccc(C)cc2)ccc1O [Comp. of formula 183] | >100 | >100 | >100 | >100 | >100
8 | Oc1ccc(/C=C/c2ccc(Cl)cc2)cc1 [Comp. of formula 119] | >100 | 100 | 15 | >100 | 7.5
9 | Cc1cccc(/C=C/c2ccccc2)c1O [Comp. of formula 116] | 100 | 60 | 60 | 60 | 60
10 | COc1ccc(/C=C/c2cccc(C)c2O)cc1 [Comp. of formula 140] | >100 | 100 | >100 | >100 | >100
11 | COc1ccc(/C=C/c2ccccc2C)cc1O [Comp. of formula 170] | >100 | >100 | >100 | >100 | >100
12 | COc1cc(/C=C/c2ccc(C)cc2)cc(O)c1OC [Comp. of formula 187] | >100 | >100 | >100 | >100 | >100
13 | Oc1ccccc1/C=C/c1ccc(Cl)cc1 [Comp. of formula 125] | 100 | 60 | 60 | 15 | 60
14 | Cc1cccc(/C=C/c2cccc3ccccc23)c1O [Comp. of formula 165] | >100 | 100 | >100 | >100 | 100
15 | COc1ccc(/C=C/c2cc(O)c(OC)c(OC)c2)cc1 [Comp. of formula 138] | >100 | >100 | >100 | >100 | >100
16 | COc1cc(/C=C/c2ccc(Cl)cc2)ccc1O [Comp. of formula 123] | >100 | 100 | >100 | >100 | >100
17 | COc1ccc(/C=C/c2ccc(-c3ccccc3)cc2)cc1O [Comp. of formula 146] | >100 | >100 | >100 | >100 | >100
18 | Oc1cccc(/C=C/c2ccc(-c3ccccc3)cc2)c1 [Comp. of formula 145] | >100 | >100 | >100 | >100 | >100
19 | CCOc1cc(/C=C/c2ccccc2)ccc1O [Comp. of formula 110] | >100 | >100 | >100 | >100 | >100
20 | Cc1ccc(/C=C/c2cccc(O)c2)cc1 [Comp. of formula 181] | 100 | 30 | 15 | 15 | 15
21 | Cc1ccccc1/C=C/c1cccc(O)c1 [Comp. of formula 169] | 100 | 30 | 30 | 60 | 30
22 | Cc1ccccc1/C=C/c1cccc(C)c1O [Comp. of formula 177] | >100 | 60 | 60 | 60 | 30
23 | Cc1ccc(/C=C/c2ccc(O)cc2)cc1 [Comp. of formula 180] | >100 | >100 | >100 | >100 | 100
24 | Oc1ccc(/C=C/c2ccccc2)cc1 [Comp. of formula 107] | >100 | 100 | >100 | >100 | 100
25 | COc1ccc(/C=C/c2cccc3ccccc23)cc1O [Comp. of formula 158] | >100 | >100 | >100 | >100 | >100
26 | COc1ccc(/C=C/c2ccccc2O)cc1 [Comp. of formula 137] | >100 | >100 | >100 | 100 | >100
